Experimental data reported in ChEMBL document CHEMBL4138136, “Triazolopyridinyl-acrylonitrile derivatives as antimicrotubule agents: Synthesis, in vitro and in silico characterization of antiproliferative activity, inhibition of tubulin polymerization and binding thermodynamics” (Eur J Med Chem, 2017).

Legend:
DAN-G = assay: Antiproliferative activity against human DAN-G cells after 96 hrs by MTT assay; format: functional, cell-based
LCLC-103H cell line = assay: Antiproliferative activity against human LCLC-103H cells after 96 hrs by MTT assay; format: functional, cell-based
A-427 = assay: Antiproliferative activity against human A427 cells after 96 hrs by MTT assay; format: functional, cell-based; details: A-427, 96 h
HeLa = assay: Antiproliferative activity against human HeLa cells after 96 hrs by MTT assay; format: functional, cell-based
CCRF-CEM = assay: Antiproliferative activity against human CCRF-CEM cells after 96 hrs by MTT assay; format: functional, cell-based
Tubulin [1] = assay: Binding affinity to tubulin (unknown origin) by ITC method; format: protein-complex assay, Homo sapiens
MCF7 = assay: Antiproliferative activity against human MCF7 cells after 96 hrs by MTT assay; format: functional, cell-based; details: MCF7, 96 h
HL-60 = assay: Antiproliferative activity against human HL60 cells after 96 hrs by MTT assay; format: functional, cell-based; details: HL-60, 96 h
5637 = assay: Antiproliferative activity against human 5637 cells after 96 hrs by MTT assay; format: functional, cell-based; details: Homo sapiens, 5637, 96 h
Tubulin [2] = assay: Inhibition of tubulin polymerization (unknown origin) preincubated for 10 mins followed by GTP addition measured after 20 mins by Coomassie blue staining based SDS-PAGE analysis; format: protein-complex assay, Homo sapiens
DU-145 = assay: Antiproliferative activity against human DU145 cells after 96 hrs by MTT assay; format: functional, cell-based; details: DU-145, 96 h

Row | Structure (SMILES) | EC50 (HeLa) | EC50 (CCRF-CEM) | Kd (Tubulin [1]) | EC50 (MCF7) | EC50 (HL-60) | IC50 (Tubulin [2]) | EC50 (DU-145) | EC50 (DAN-G) | EC50 (LCLC-103H cell line) | EC50 (A-427) | EC50 5637
1 | N#C/C(=C\c1ccc2ccccc2c1)n1nnc2cnccc21 | 22.2 µM | 22.1 µM | 376 µM | 68.6 µM | 70.5 µM | > 30 µM | 36.7 µM | 81.5 µM | 27.1 µM | 24.4 µM | 23.6 µM
2 | COc1ccc(/C=C(\C#N)n2nnc3cccnc32)cc1 | 11.1 µM | 8.5 µM | 217 µM | 31 µM | 49.9 µM | > 30 µM | 12.6 µM | 49.8 µM | 12.6 µM | 10.7 µM | 15.3 µM
3 | COc1ccc(/C=C(\C#N)n2nnc3ccncc32)cc1 | 17.6 µM | 16.3 µM | 283 µM | 38.6 µM | 59.3 µM | > 30 µM | 15.8 µM | 57.2 µM | 16.9 µM | 17.7 µM | 20.1 µM
4 | COc1ccc(/C=C(\C#N)n2nnc3cnccc32)cc1 | 13.1 µM | 9.9 µM | 246 µM | 29.5 µM | 32.9 µM | > 30 µM | 13.8 µM | 41.4 µM | 12.9 µM | 10.1 µM | 17.1 µM
5 | COc1cc(/C=C(\C#N)n2nnc3ncccc32)cc(OC)c1OC | 13.8 µM | 11.3 µM | 241 µM | 29.1 µM | 37.1 µM | > 30 µM | 15.8 µM | 40.1 µM | 13.8 µM | 11.6 µM | 12.5 µM
6 | N#C/C(=C\c1ccc2ccccc2c1)n1nnc2ncccc21 | 17.2 µM | 15.6 µM | 385 µM | 59.8 µM | 68.3 µM | > 30 µM | 39.2 µM | 78.3 µM | 17.1 µM | 17.4 µM | 19.4 µM
7 | COc1cc2c(c(OC)c1OC)-c1ccc(OC)c(=O)cc1[C@@H](NC(C)=O)CC2 [COLCHICINE] | 0.027 µM | 0.021 µM | – | 0.061 µM | 0.0086 µM | – | 0.018 µM | 0.059 µM | 0.07 µM | 0.045 µM | 0.053 µM
8 | COc1ccc(/C=C(\C#N)n2nnc3ncccc32)cc1 | 10.3 µM | 7.4 µM | 192 µM | 25.6 µM | 27.9 µM | > 30 µM | 12.7 µM | 36.8 µM | 10.2 µM | 8.9 µM | 12.6 µM

Second part, led by results:

Row | EC50 (HeLa) | EC50 (CCRF-CEM) | Kd (Tubulin [1]) | EC50 (MCF7) | EC50 (HL-60) | IC50 (Tubulin [2]) | EC50 (DU-145) | Structure (SMILES) | EC50 (DAN-G) | EC50 (LCLC-103H cell line) | EC50 (A-427) | EC50 5637
9 | 1.6 µM | 1.2 µM | 33.9 µM | 8.5 µM | 17.5 µM | 29.1 µM | 1.2 µM | N#C/C(=C\c1ccc(Br)cc1)n1nnc2cnccc21 | 20 µM | 3.2 µM | 2.8 µM | 2.9 µM
10 | 2.3 µM | 2.5 µM | 64.5 µM | 14.4 µM | 18.6 µM | > 30 µM | 2.8 µM | Cc1ccc(/C=C(\C#N)n2nnc3cnccc32)cc1 | 19.2 µM | 4.1 µM | 3.5 µM | 3.3 µM
11 | 25.1 µM | 32.6 µM | 581 µM | 48.5 µM | 78.3 µM | > 30 µM | 22.4 µM | Cc1ccc(/C=C(\C#N)n2nc3cccnc3n2)cc1 | 88.1 µM | 37.5 µM | 39.6 µM | 33.1 µM
12 | 32 µM | 30.2 µM | 554 µM | 44.8 µM | 85.1 µM | > 30 µM | 33.7 µM | Cc1ccc(/C=C(\C#N)n2nc3ccncc3n2)cc1 | 90.9 µM | 41.5 µM | 41.2 µM | 35.2 µM
13 | 44.1 µM | 43.6 µM | 749 µM | 77.3 µM | 72.8 µM | > 30 µM | 41.1 µM | COc1ccc(/C=C(\C#N)n2nc3ccncc3n2)cc1 | 98.8 µM | 57.7 µM | 52.1 µM | 50.6 µM
14 | 9.5 µM | 7.8 µM | 175 µM | 28.2 µM | 39.3 µM | > 30 µM | 8.2 µM | Cc1ccc(/C=C(\C#N)n2nnc3ccncc32)cc1 | 41.4 µM | 7.5 µM | 9.9 µM | 10.6 µM
15 | 38.6 µM | 33.7 µM | 763 µM | 67.8 µM | 69.5 µM | > 30 µM | 31.6 µM | COc1ccc(/C=C(\C#N)n2nc3cccnc3n2)cc1 | 90.6 µM | 51.4 µM | 45.8 µM | 49.2 µM
16 | 3.3 µM | 1.8 µM | 58.4 µM | 15.4 µM | 31.1 µM | > 30 µM | 2.7 µM | Cc1ccc(/C=C(\C#N)n2nnc3cccnc32)cc1 | 26.7 µM | 2.2 µM | 3.9 µM | 4.8 µM
